Data on six compounds can be found in patent US9320724B2, “Method of improving cognition and increasing dendritic complexity in humans with down syndrome and compositions therefor” (priority 2013, dated 2016).

Data set [1] concerns Ts65Dn mice. The following applies: cited from earlier work; for contextual learning: earlier study.
For data set [2], the system named is Fgf2. The conditions noted are these: rats; IP injections; cited from earlier work.
Data set [3] deals with Ts65Dn mice. The following applies: cited from earlier work.
Data set [4] has as its system Ts65Dn and 2N mice. The data set can be described thus: Cardiovascular and respiratory system monitoring (MouseOx vital signs monitor). The conditions noted are these: nadolol 5 mg/kg IP, 1 h later formoterol 2 mg/kg IP or saline, tested 4 h later. As to the method:
(§1) Pharmacological Treatments. […] For details on methods of drug injections see FIG. 16.
Cardiovascular and respiratory system monitoring. Peripheral effects of fomoterol were assessed using MOUSEOX® Small Animal Vital Signs Monitor (Starr). The monitor was attached to a collar clip with an LED sensor to enable recordings in free-moving mice. To minimize stress before recording, the collar clip was attached to each animal. After five minutes, heart rate, respiratory rate, and oxygen saturation were recorded using MOUSEOX® 6.3.13 for 10 minutes.
(§2) FIG. 16. Strategy used for performing IP injections of βAR agonist and antagonist and behavioral testing. […] Four hours later, the mice were tested for cardiovascular and respiratory system effects, open field activity, or fear conditioning. The process started with open field-testing on day 1 followed by fear conditioning on days 4 (training) and 5 (testing).

In data set [5] the test system is Ts65Dn and 2N mice. The data set can be described thus: Fear conditioning (contextual learning). The data set is classed as in vivo, mouse. The conditions noted are these: context test one day after training, nadolol 5 mg/kg IP then formoterol 2 mg/kg IP or saline. As to the method:
as §1
b) Fear Conditioning. […] The fear conditioning tests were done using four FreezeScan chambers (Clever Sys) on days 4 and 5 after the start of the open field-testing. […] Four hours later, the mice were placed in the fear-conditioning chamber and their baseline activity was recorded for three minutes. At the end of this period, each mouse was exposed to five shocks (2 seconds each, 0.5 mA) with inter-trial intervals of 80 seconds. Twenty-four hours later, the mice were injected again, similar to the Training Day, and returned to the same fear-conditioning chamber for five minutes and their activity was recorded. Freezing was defined as a lack of movement for 3 frames (29 frames/s).
as §2

The conditions of data set [6]: oral administration in rodents; cited from earlier work.
The conditions of data set [7]: in vivo; cited from earlier work.
The subject of data set [8] is Ts65Dn and 2N mice. The data set can be described thus: Open field activity. The data set is classed as in vivo, mouse. The conditions noted are these: nadolol 5 mg/kg IP then formoterol 2 mg/kg IP or saline; for total distance travelled: in 10 minutes. As to the method: as §1
a) Open Field Activity. Prior to testing, the mice were handled for five days for habituation. […] Four hours later, the mice were tested for open field activity. The open field arena (450 mm×450 mm) had visual cues on the walls. […] The arena was cleaned after each session. The velocity, total distance traveled, and the time spent in the peripheral 50% versus central 50% area of the arena (bouts) for each mouse were quantified and analyzed using TopScan Lite (Clever Sys).
as §2

Another data set concerns synaptophysin. The data set can be described thus: Synaptophysin immunostaining of the DG (synaptic density). The class given is in vivo, mouse. The conditions noted are these: daily IP nadolol alone or nadolol with formoterol until day 16. As to the method:
(§3) At the end of this period, all mice were anesthetized, perfused, and the brain was extracted. The right hemisphere from each brain was fixed in 4% paraformaldehyde followed by dehydration. The methodology for staining has been published before. […] The left hemisphere was flash frozen and used for gene expression studies.
(§4) Before all staining(s), to inhibit endogenous peroxidase, 70-μm-thick floating sections were pre-incubated in 0.5% H2O2 in 50% methanol for 30 minutes at RT. This was followed by pre-incubating the sections in 0.1% triton and 10% normal serums(s) (NS, Vector Labs) for 1 hour at RT. This was followed by incubation in primary antibodies overnight at RT. […] For DCX staining the sections were kept in pre-warmed (37° C.) for 30 minutes before staining. This was followed by incubation in secondary anti-bodies that were diluted in 0.1% triton and corresponding 1% NS. The sections were then incubated in ABC Lite (1:1000, Vector) for 1 hour. Staining was terminated by incubating in DAB (0.66 mg/ml in tris-HCl) for 5-10 minutes. Finally, the sections were washed, dehydrated and mounted.
(§5) FIG. 16. Strategy used for performing IP injections of βAR agonist and antagonist and behavioral testing. […] Four hours later, the mice were tested for cardiovascular and respiratory system effects, open field activity, or fear conditioning. […]

The subject of a further data set is c-Fos. The data set can be described thus: c-Fos immunostaining of the DGC layer. The data set is classed as in vivo, mouse. The conditions noted are these: daily IP nadolol alone or nadolol with formoterol until day 16. As to the method:
as §3, §4, §5

Another data set concerns BrdU-positive profiles. Kind of data set: BrdU cell count in the DG (cell proliferation). The class given is in vivo, mouse. The following applies: 15 days of treatment, then BrdU 50 mg/kg IP daily for 5 days. As to the method:
To identify proliferating cells, we used 5-bromo-2′-deoxyuridine (BrdU, Sigma). It was dissolved in PBS, filtered, and kept at 4° C. till use. After 15 days of treatment, each mouse was injected IP daily (50 mg/kg) with BrdU solution for 5 days. Thereafter, on day 21, all mice were anesthetized and transcardially perfused with ice-cold saline. The entire brain was immediately removed and the two hemispheres were separated. The left hemisphere was fixed overnight, cut, and stored. […] This was followed by incubation of sections in ABC.
Stereo-Investigator (MBF) was used to quantify the total number of BrdU-positive cells in the entire septo-temporal extent of DG. Following the outlining of the DG area at 4×, each positive profile was identified using a 100× oil objective. Unbiased stereological methods were used to determine the total number of BrdU-immunoreactive-profiles throughout the hippocampus. A Nanozoomer system (Hamamatsu 2.0 RS) was used to capture images of the entire slide in each case. High magnification images were captured using the Nanozoomer and stored.

A further data set relates to DCX-positive neurons. Kind of data set: DCX immunostaining: number and dendritic branching of newly born DGCs. The class given is in vivo, mouse. The following applies: nadolol alone or nadolol with formoterol. As to the method: as §3, §4
Data set [9] relates to Fgf2. The data set can be described thus: Fgf2 gene expression, real-time PCR in DG micro-punches. The data set is classed as in vivo. The following applies: normalized to B-actin and Gapdh and to a 2N mouse.

Where only a bound is given, the exact number is not on record here.

For `N[C@H](C(=O)O)[C@H](O)c1ccc(O)c(O)c1` [L-DOPS, L-threo-3,4-dihdroxyphenylserine], in the data set with Ts65Dn mice [1], the contextual learning entry is “restored contextual learning”.
As to `CC(C)(C)NCC(O)c1cc(Cl)c(N)c(Cl)c1` (stereo not drawn) [clenbuterol], the “Fgf2 mRNA levels in the hippocampus” value in the data set on Fgf2 [2] is listed as “significant increase”.
With `CNCCC(Oc1ccc(C(F)(F)F)cc1)c1ccccc1` (stereo not drawn) [fluoxetine], the neurogenesis result in the data set with Ts65Dn mice [3] is on record as “promote neurogenesis”.
As for `COc1ccc(CC(C)NCC(O)c2ccc(O)c(NC=O)c2)cc1` (stereo not drawn) [formoterol], in the data set with Ts65Dn and 2N mice [4] (2N mice), the O2 saturation was found to be 93.221±0.36% and the heart rate was found to be 638.440±44.77 pulse per minute. Also, in the data set on Ts65Dn and 2N mice [4] (Ts65Dn mice), the O2 saturation stood at 92.205±1.31%, the heart rate was 672.620±36.58 pulse per minute and the respiratory rate is 189.090±8.40 per minute. The duration of freezing with Ts65Dn and 2N mice [5] (Ts65Dn mice) came to 34.040±3.66 seconds per minute. Further, the “time to reach the brain” value in data set [6] was ≤ 30 min. Besides, in [7], the “crossing of the blood brain barrier” value was “cross the blood brain barrier (BBB) and reach the brain”.
Regarding `CC(C)(C)NCC(O)COc1cccc2c1CC(O)C(O)C2` (stereo not drawn) [nadolol], the duration of freezing in the data set on Ts65Dn and 2N mice [5] (2N mice) worked out at 46.761±3.09 seconds per minute; in the data set with Ts65Dn and 2N mice [5] (Ts65Dn mice) it was 19.28±4.79 seconds per minute. Besides, the total distance travelled with Ts65Dn and 2N mice [8] (2N mice) was found to be 18.233±1.48 meters; in the data set on Ts65Dn and 2N mice [8] (Ts65Dn mice), 30.424±2.70 meters. In addition, the “number of bouts, central 50% area” value in the data set with Ts65Dn and 2N mice [8] (2N mice) was 39.46±4.96; in the data set with Ts65Dn and 2N mice [8] (Ts65Dn mice), 60.25±4.95. In the data set on Ts65Dn and 2N mice [8] (2N mice), the “number of bouts, peripheral 50% area” value was 45.00±5.68. For the same compound, the “mean velocity in the open field arena” value with Ts65Dn and 2N mice [8] (2N mice, 4 h later) is reported as 31.465±2.74 mm/s. The “percentage of area covered by synaptophysin staining in the DG” value in the data set on synaptophysin (2N mice) is recorded as 27.40±11.00%; with synaptophysin (Ts65Dn mice), 21.50±1.00%. Further, the “density of c-Fos-positive DGCs” value is 179.30±22.4 cells/mm^2 in the data set with c-Fos (2N mice) and 109.42±13.0 cells/mm^2 in the data set on c-Fos (Ts65Dn mice). The “total number of BrdU-positive profiles in the DG” value is given as 3,161.390±900 in the data set with BrdU-positive profiles (2N mice) and 2,133.290±491 in the data set on BrdU-positive profiles (Ts65Dn mice). Moreover, the “number of DCX-positive DGCs” value is listed as 5391.36±744 in the data set on DCX-positive neurons (2N mice) and 2837.79±500 in the data set on DCX-positive neurons (Ts65Dn mice). Moreover, the “order of dendritic branching of DCX-positive neurons” value was determined as 2.05±0.12 with DCX-positive neurons (2N mice) and 1.58±0.08 in the data set on DCX-positive neurons (Ts65Dn mice). Moreover, the “Fgf2 gene expression in DG micro-punches” value with Fgf2 [9] (2N mice) is 1.000±0.41; with Fgf2 [9] (Ts65Dn mice), 0.344±0.07.
As to `O=C(NCCNCC(O)COc1ccc(O)cc1)N1CCOCC1` (stereo not drawn) [xamoterol], in the data set on Ts65Dn mice [1], the contextual learning entry is “restored contextual learning”. Moreover, the “spatial learning and hyperactivity” value with Ts65Dn mice [1] (later studies) is “did not improve spatial learning and/or reduce hyperactivity”.
